In brackets after ≈: the same amount, converted by molar mass. Like-named read-outs stand apart in the source and are kept apart here.
Assays:
MRSA ATCC-BAA-1681 = test: MIC, panel of MRSA strains: ATCC-BAA-1681; assay type: cell-based; conditions: Staphylococcus aureus; MRSA strain ATCC-BAA-1681
Experimental: (§1) Using a sterile loop, 3 to 5 isolated colonies of bacteria of the same morphological appearance are selected from the overnight agar plate. The colonies are transferred into a conical flask containing 5 mL of liquid medium (i.e. Mueller-Hinton broth). The broth is incubated at 37° C. in a shaker at 220 rpm until it reaches a turbidity that is equal to the turbidity of a McFarland Standard 0.5 (correspond to 1×10^8 cfu/mL). This culture growth step will require 1-2 hours depending on the bacteria tested.
(§2) During this pause period, an antibacterial dilution is prepared. Therefore an antibacterial stock solution is diluted in Mueller-Hinton broth. The concentration of DMSO is kept at 5%. 100 μL of the antibacterial solution are dispensed into the first well of a row. 50 μL of medium containing 0.5% of DMSO are dispensed to the rest of the wells. […]
(§3) The bacterial suspension prepared above is mixed thoroughly, and diluted by a factor of 1:100 in the sterile medium. […] The colonies on the agar plate are counted the next day to verify that the right number of cfu was inoculated. The plate is agitated in the SpectraMax spectrophotometer for 90 s and the OD600 for all the wells in the plate is recorded. […]

MRSA (ATCC 33591) = test: MIC determination by broth microdilution vs. MRSA (ATCC 33591); assay type: cell-based, Staphylococcus aureus; conditions: Staphylococcus aureus
Experimental: as §1
During this pause period, an antibacterial dilution is prepared. Therefore an antibacterial stock solution is diluted in Mueller-Hinton broth. The concentration of DMSO is kept at 5%. 100 μL of the antibacterial solution are dispensed into the first well of a row. 50 μL of medium containing 0.5% of DMSO are dispensed to the rest of the wells. A 2-fold serial dilution is achieved by transferring 50 μL from the first well (containing the highest concentration of antibacterial) into the second well, and continuing like this until the 10th well in the row. The final 50 μL are discarded so that every well has 50 μL of each antibacterial dilution.
The 11th well was used as the growth control well (medium with bacterial inoculums, no antibacterial) while the 12th well was the sterility control well (medium only).
The bacterial suspension prepared above is mixed thoroughly, and diluted by a factor of 1:100 in the sterile medium. Each well and the growth control well is inoculated with 50 μL of the bacterial suspension. […] To the sterility control well 50 μL of sterile medium are added in place of the bacterial suspension. 10 μL aliquot from the growth control well is removed immediately after inoculating the plate and pipetted it into a sterile Eppendorf tube holding 990 μL of sterile broth. It is mixed well by vortexing. This suspension is further diluted (1:10) by pipetting 100 μL into 900 μL of sterile broth and mixing it well. 100 μL of each of the two dilutions are plated onto two different antibacterial-free agar plates. A sterile cell spreader is used to spread the liquid. Then the plate is sealed with a transparent adhesive film. The microtiter plate and agar plates are incubated at 37° C. for 16-20 hours or until satisfactory growth is obtained. The colonies on the agar plate are counted the next day to verify that the right number of cfu was inoculated. The plate is agitated in the SpectraMax spectrophotometer for 90 s and the OD600 for all the wells in the plate is recorded.

MRSA ATCC-2094 = test: MIC, panel of MRSA strains: ATCC-2094; assay type: cell-based; conditions: Staphylococcus aureus; MRSA strain ATCC-2094
Experimental: as §1, §2, §3

MRSA ATCC-700699 = test: MIC, panel of MRSA strains: ATCC-700699; assay type: cell-based; conditions: Staphylococcus aureus; MRSA strain ATCC-700699
Experimental: as §1, §2, §3

MRSA ATCC-BAA-1680 = test: MIC, panel of MRSA strains: ATCC-BAA-1680; assay type: cell-based; conditions: Staphylococcus aureus; MRSA strain ATCC-BAA-1680
Experimental: as §1, §2, §3

MRSA ATCC-1720 = test: MIC, panel of MRSA strains: ATCC-1720; assay type: cell-based; conditions: Staphylococcus aureus; MRSA strain ATCC-1720
Experimental: as §1, §2, §3

MRSA ATCC-BAA-44 = test: MIC, panel of MRSA strains: ATCC-BAA-44; assay type: cell-based; conditions: Staphylococcus aureus; MRSA strain ATCC-BAA-44
Experimental: as §1, §2, §3

MIC (MRSA ATCC-BAA-1681): 3.12 µM (≈ 2.29 µg/mL)
MIC (MRSA (ATCC 33591); MRSA (ATCC 33591), read-out: MIC): 1.56 µM (≈ 1.14 µg/mL)
MIC (MRSA (ATCC 33591); MRSA strain ATCC-33591, read-out: MIC values): 1.56 µM (≈ 1.15 µg/mL)
MIC (MRSA ATCC-2094): 3.12 µM (≈ 2.29 µg/mL)
MIC (MRSA ATCC-700699): 3.12 µM (≈ 2.29 µg/mL)
MIC (MRSA ATCC-BAA-1680): 1.56 µM (≈ 1.15 µg/mL)
MIC (MRSA ATCC-1720): 3.12 µM (≈ 2.29 µg/mL)
MIC (MRSA ATCC-BAA-44): 3.12 µM (≈ 2.29 µg/mL)
Structure (SMILES): N=C(N)NCCCCNC(=O)[C@@H](Cc1ccc(-c2ccccc2)cc1)NC(=O)[C@@H](CCCNC(=N)N)NC(=O)[C@H](N)Cc1ccc(-c2ccccc2)cc1 [Compound (A)]
